# Test results reported in patent US10350188B2, “Use of Neu1 sialidase inhibitors in the treatment of cancer” (priority 2011, dated 2019).
# Key:
# Neu1 sialidase = Neu1 sialidase (Mus musculus, UniProt O35657); test: LPS-induced Neu1 sialidase activity in live BMA macrophage cells (4-MUNANA); assay type: cell-based; design: endogenous in cells; host or cells: BMA macrophage cells; conditions: LPS-induced Neu1 sialidase activity, live BMA macrophage cells
# Protocol: TLR-expressing BMA macrophage cells were grown on 12 mm circular glass slides in culture media containing DMEM supplemented with 10% fetal calf serum. […] Fluorescent images were taken after 2-3 minutes using epi-fluorescent microscopy (Zeiss Imager M2, 40× objective).
# This recently developed assay was used to detect sialidase activity on the surface of viable cells. […] The inhibitory potency of a series of amide-linked C9 modified DANA (2-deoxy-2,3-dehydro-D-N-acetylneuraminic add) analogues on lipopolysaccharide (LPS)-induced Neu1 sialidase activity was assessed in live BMA macrophage cells.
# PANC-1 cells = test: Cell viability of PANC-1 pancreatic cancer cells in culture (MTT or WST-1, 72 hrs); assay type: cell-based, human; conditions: for LD50 PANC-1: oseltamivir phosphate analogues (TD), WST-1, 72 hrs; for Chemo-drug LD50 / Chemo-drug sensitivity with oseltamivir phosphate (fold increase): PANC-1; for Chemo-drug LD50: MTT, 72 hrs
# MiaPaCa-2 cells = test: Cell viability of MiaPaCa-2 pancreatic cancer cells in culture (MTT or WST-1, 72 hrs); assay type: cell-based, human; conditions: for LD50 MiaPaCa-2: oseltamivir phosphate analogues (TD), WST-1, 72 hrs; for Chemo-drug LD50 / Chemo-drug sensitivity with oseltamivir phosphate (fold increase): MiaPaCa-2; for Chemo-drug LD50: MTT, 72 hrs
# [1] = system: MiaPaCa-2-eGFP pancreatic cancer cells implanted in RAG2/Cγ double mutant Balbc xenograft mice; test: MiaPaCa-2-eGFP pancreatic cancer xenograft in RAG2/Cγ double mutant Balbc mice; assay type: in vivo, mouse; conditions: for Liver metastasis percent inhibition: vs untreated day 51
# Protocol: Tumour measurements were taken twice a week.
# MiaPaCa-2-eGFP pancreatic cancer cells at 1.5×10^6 in 0.2 mL were implanted subcutaneously in the right back flank of these mice. Each mouse in the study was identified by an ear punch number. Twice a week each mouse following implantation of the cancer cells was monitored for tumour volume growth (length and width) at the site of implantation, body weights, and body condition scoring. Scoring the body condition of rodents is a non-invasive method for assessing health and establishing endpoints for adults where body weight is not a viable monitoring tool, such as with tumour models. Body condition scores (BC) range from 1(emaciation) to 5 (obesity). An anticipated BCS of 2—under conditioned—or lower, requires justification in the protocol. Scores are determined by frequent visual and hands-on examination of each animal. The hands-on evaluation is done by gently holding the mouse by the base of the tail and passing a finger over the sacroiliac bones. The findings are matched to the descriptions and diagrams of BC ranges to determine a score. Scores are documented for each animal.
# BxPC-3 cells = test: Cell viability of BxPC-3 pancreatic cancer cells in culture (MTT or WST-1, 72 hrs); assay type: cell-based, human; conditions: BxPC-3; for Chemo-drug LD50: MTT, 72 hrs
# [2] = chemo-drug + oseltamivir phosphate 10 mg/kg daily, Altima day 70, Abraxane day […]
# [3] = chemo-drug alone, Altima 100 mg/kg day 70, Abraxane 200 mg/kg day 87
# [4] = day 48, chemo-drug (alimta 100, abraxane 200 mg/kg) + oseltamivir phosphate 10 mg/kg daily i.p.
# [5] = day 48, chemo-drug alone (alimta 100 mg/kg, abraxane 200 mg/kg i.p.)
# [6] = day 63, chemo-drug (alimta 100, abraxane 200 mg/kg) + oseltamivir phosphate 10 mg/kg daily
# [7] = day 63, chemo-drug alone (alimta 100 mg/kg, abraxane 200 mg/kg)
# [8] = co-treatment oseltamivir phosphate 730 μM
# [9] = co-treatment oseltamivir phosphate 1460 μM
# [10] = day 62, tamoxifen 0.1 mg/kg alone or with oseltamivir phosphate 100 mg/kg daily
# [11] = day 66, tamoxifen 0.1 mg/kg alone or with oseltamivir phosphate 100 mg/kg daily
smiles,measurement,setting,value
CC(=O)N[C@@H]1C(O)C=C(C(=O)O)OC1[C@@H](O)[C@@H](O)CNC(=O)C(C)(C)C (some centres unmarked) [B10],IC50,Neu1 sialidase,411 µM
CC(=O)N[C@@H]1C(O)C=C(C(=O)O)OC1[C@@H](O)[C@@H](O)CNC(=O)C(C)C (some centres unmarked) [B7],IC50,Neu1 sialidase,683 µM
"CCC(CC)O[C@@H]1C=C(C(=O)[O-])[C@H]2OC(C)(C)O[C@H]2[C@H]1NC(C)=O.[Na+] [A6, Sodium; 7-acetylamino-6-(1-ethyl-propoxy)-2,2-dimethyl-3a,6,7,7a-tetrahydro-benzo[1,3]dioxole-4-carboxylate]",LD50 PANC-1,PANC-1 cells,>2000 µM
same,LD50 MiaPaCa-2,MiaPaCa-2 cells,>2000 µM
CCC(C)C(=O)NC[C@H](O)[C@H](O)C1OC(C(=O)O)=CC(O)[C@H]1NC(C)=O (some centres unmarked) [B2],IC50,Neu1 sialidase,29.7 µM
"Nc1nc2[nH]cc(CCc3ccc(C(=O)N[C@@H](CCC(=O)O)C(=O)O)cc3)c2c(=O)[nH]1 [alimta, Pemetrexed]",Survival of tumour bearing mice,"[1]; chemo-drug (Alimta 100, Abraxane 200 mg/kg) + oseltamivir phosphate 10 mg/kg daily, untreated control day 51",70 days
same,Liver Metastasis (avg no. nodules),"[1]; chemo-drug + oseltamivir phosphate 10 mg/kg daily, Altima 100 mg/kg day 70, Abraxane 200 mg/kg day […]",3
same,"Metastases (size, mm)",[1]; [2],0.2-0.5 mm
same,Liver metastasis percent inhibition,[1]; [2],91%
same,Liver Metastasis (avg no. nodules),[1]; [3],5
same,"Metastases (size, mm)",[1]; [3],0.2-1.0 mm
same,Liver metastasis percent inhibition,[1]; [3],85%
same,Survival of tumour bearing mice,"[1]; chemo-drug monotherapy (Alimta 100 mg/kg, Abraxane 200 mg/kg), untreated control day 51",70 days
same,% Inhibition To untreated,[1]; [4],77%
same,Tumour volume,[1]; [4],189 mm^3
same,% Inhibition To untreated,"[1]; day 48, chemo-drug (alimta 100, abraxane 200 mg/kg) + oseltamivir phosphate 10 mg/kg daily i.p., listed as Almita",77%
same,% Inhibition To untreated,[1]; [5],72%
same,Tumour volume,[1]; [5],225 mm^3
same,% Inhibition To untreated,[1]; [6],3%
same,Tumour volume,[1]; [6],787 mm^3
same,% Inhibition To untreated,[1]; [7],40%
same,Tumour volume,[1]; [7],482 mm^3
CC(=O)N[C@@H]1C(O)C=C(C(=O)O)OC1[C@@H](O)[C@@H](O)CNC(=O)C1CCCC1 (some centres unmarked) [B6],IC50,Neu1 sialidase,76.6 µM
CC(=O)N[C@H]1[C@@H]2OC(C)(C)O[C@@H]2C(C(=O)[O-])=C[C@H]1O.[Na+],LD50 PANC-1,PANC-1 cells,349 µM
same,LD50 MiaPaCa-2,MiaPaCa-2 cells,2.8 µM
"CC/C(=C(\c1ccccc1)c1ccc(OCCN(C)C)cc1)c1ccccc1 [tamoxifen, Tamoxifen]",Chemo-drug LD50,BxPC-3 cells; [8],3 µM
same,Chemo-drug LD50,BxPC-3 cells; [9],0.078 µM
same,Chemo-drug LD50,BxPC-3 cells; oseltamivir phosphate 0 μM,9 µM
same,Chemo-drug sensitivity with oseltamivir phosphate (fold increase),BxPC-3 cells; oseltamivir phosphate 730 μM,3 fold increase
same,Chemo-drug sensitivity with oseltamivir phosphate (fold increase),BxPC-3 cells; oseltamivir phosphate 1460 μM,115 fold increase
same,Chemo-drug LD50,PANC-1 cells; [8],0.8 µM
same,Chemo-drug LD50,PANC-1 cells; [9],0.078 µM
same,Chemo-drug LD50,PANC-1 cells; oseltamivir phosphate 0 μM,12.5 µM
same,Chemo-drug sensitivity with oseltamivir phosphate (fold increase),PANC-1 cells; oseltamivir phosphate 730 μM,16 fold increase
same,Chemo-drug sensitivity with oseltamivir phosphate (fold increase),PANC-1 cells; oseltamivir phosphate 1460 μM,160 fold increase
same,% Inhibition To untreated,"[1]; day 59, tamoxifen 0.1 mg/kg alone or with oseltamivir phosphate 100 mg/kg daily",57%
same,Tumour volume,"[1]; day 59, tamoxifen 0.1 mg/kg i.p. alone or with oseltamivir phosphate 100 mg/kg i.p. daily",960 ± 208 (4) mm^3
same,% Inhibition To untreated,[1]; [10],21%
same,Tumour volume,[1]; [10],1738 ± 328 (4) mm^3
same,% Inhibition To untreated,[1]; [11],0%
same,Tumour volume,[1]; [11],2650 ± 360 (3) mm^3
same,Survival of tumour bearing mice,"[1]; tamoxifen 0.1 mg/kg alone or with oseltamivir phosphate 100 mg/kg daily, untreated control day 60",66 days
same,Chemo-drug LD50,MiaPaCa-2 cells; [8],0.8 µM
same,Chemo-drug LD50,MiaPaCa-2 cells; [9],0.078 µM
same,Chemo-drug LD50,MiaPaCa-2 cells; oseltamivir phosphate 0 μM,7.0 µM
same,Chemo-drug sensitivity with oseltamivir phosphate (fold increase),MiaPaCa-2 cells; oseltamivir phosphate 730 μM,9 fold increase
same,Chemo-drug sensitivity with oseltamivir phosphate (fold increase),MiaPaCa-2 cells; oseltamivir phosphate 1460 μM,90 fold increase
"CC(=O)N[C@@H]1/C(=N/O)C=C(C(=O)[O-])[C@H]2OC(C)(C)O[C@H]21.[Na+] [A5, Sodium; 7-acetylamino-6-hydroxyimino-2,2-dimethyl-3a,6,7,7a-tetrahydro-benzo[1,3]dioxole-4-carboxylate]",LD50 PANC-1,PANC-1 cells,3 µM
same,LD50 MiaPaCa-2,MiaPaCa-2 cells,24 µM
CCCCC(=O)NC[C@H](O)[C@H](O)C1OC(C(=O)O)=CC(O)[C@H]1NC(C)=O (some centres unmarked) [B5],IC50,Neu1 sialidase,1.45 µM
